Laboratory results reported in patent US6686394B1, “Aryl-chloro-ethyl ureas” (Sovar, Societe en Commandite, priority 1999, dated 2004).

Columns and labels:
HT-29 [1] = assay: Cytotoxicity assay C50/G50, MTT or resazurin (Example 16); format: cell-based, human; conditions: for IC50: Homo sapiens, day-3, read-out: G50 (concentration inhibiting cell growth by 50%); for C50 (concentration needed to kill 50% of the cellular population present at the beginning): day-3
Experimental: (§1) Cell culture. Tumor cell lines (B16-F0, Caco-2, DU-145, HT-29, MDA-MB-231 and other cell lines described so far in the patent application) were obtained from the American Type Culture Collection (ATCC HTB-26; Bethesda, Md.). Cells were grown in RPMI 1640 medium supplemented with 10% fetal bovine serum (Hyclone, Road Logan, Utah) and were cultured in a humidified atmosphere at 37° C. in 5% CO2.
(§2) Drugs: All drugs were dissolved in DMSO and the final concentration of DMSO in the culture medium was maintained at 0.5% (v/v).
(§3) Cytotoxiciy assays. At day-1, tumor cells in suspension in 100 μl were plated in microtiter plates (96 wells). On day-0, tumor cells were treated by addition of escalating concentrations of the drug (100 μl solution). On that day, the number of living cells was determined in wells that were untreated. This was performed in order to be able to evaluate the toxic concentration of the drug needed to kill 50% of the cellular population present at the beginning of the experiments. This value is represented by C50 in the table. At day-3, the number of living cells is determined using either MTT or resazurin assays. Growth inhibition activity of these compounds was expressed as the concentration of CAU inhibiting cell growth by 50% G50 in the following table
(§4) The MTT assay was as described above in Example 1. The Resazurin assay was performed as follows:
(§5) Aspirate the supernatant (cell suspension: centrifuge first)
(§6) Add 100 μL NaCl 0.9% (saline)
(§7) Add 50 μL RZ (resazurin 125 μg/ml/PBS: RPMI without FBS; 1:4) Incubate at 37° C.
(§8) Collect fluorescence data at different time.

MDA-MB-231 [2] = assay: as above; format: cell-based, human; conditions: for IC50: Homo sapiens, day-3, read-out: G50 (concentration inhibiting cell growth by 50%); for C50 (concentration needed to kill 50% of the cellular population present at the beginning): day-3
Experimental: as §1, §2, §3, §4, §5, §6, §7, §8

B16-F0 [3] = assay: as above; format: cell-based; conditions: for IC50: Mus musculus, B16F0, day-3, read-out: G50 (concentration inhibiting cell growth by 50%); for C50 (concentration needed to kill 50% of the cellular population present at the beginning): day-3
Experimental: as §1, §2, §3, §4, §5, §6, §7, §8

Caco-2 [4] = assay: as above; format: cell-based; conditions: for IC50: Homo sapiens, day-3, read-out: G50 (concentration inhibiting cell growth by 50%); for C50 (concentration needed to kill 50% of the cellular population present at the beginning): day-3
Experimental: as §1, §2, §3, §4, §5, §6, §7, §8

DU-145 [5] = assay: as above; format: cell-based; conditions: for IC50: Homo sapiens, day-3, read-out: G50 (concentration inhibiting cell growth by 50%); for C50 (concentration needed to kill 50% of the cellular population present at the beginning): day-3
Experimental: as §1, §2, §3, §4, §5, §6, §7, §8

B16-F0 [6] = assay: Cytotoxicity assay G50, MTT or resazurin (Example 29); format: cell-based; conditions: Mus musculus, B16F0; cell line B16-F0
Experimental: as §1, §2
(§9) Cytotoxiciy assays. At day-1, tumor cells in suspension in 100 μl were plated in microtiter plates (96 wells). On day-0, tumor cells were treated by addition of escalating concentrations of the drug (100 μl solution). On that day, the number of living cells was determined in wells that were untreated. The number of living cells is determined using either MTT or resazurin assays. Growth inhibition activity of these compounds was expressed as the concentration of CAU inhibiting cell growth by 50% G50 in the following table
as §4, §5, §6
(§10) Add 50 μL RZ (resazurin 125 μg/ml/PBS: RPMI without FBS; 1:4)
as §8

Caco-2 [7] = assay: as above; format: cell-based; conditions: Homo sapiens; cell line Caco-2
Experimental: as §1, §2, §9, §4, §5, §6, §10, §8

DU-145 [8] = assay: as above; format: cell-based; conditions: Homo sapiens; cell line DU-145
Experimental: as §1, §2, §9, §4, §5, §6, §10, §8

HT-29 [9] = assay: as above; format: cell-based; conditions: Homo sapiens; cell line HT-29
Experimental: as §1, §2, §9, §4, §5, §6, §10, §8

MDA-MB-231 [10] = assay: as above; format: cell-based; conditions: Homo sapiens; cell line MDA-MB-231
Experimental: as §1, §2, §9, §4, §5, §6, §10, §8

CHO = assay: as above; format: cell-based, Chinese Hamster; conditions: Cricetulus griseus; cell line CHO
Experimental: as §4, §5, §6, §10, §8

K562 = assay: as above; format: cell-based; conditions: Homo sapiens; cell line K562
Experimental: as §4, §5, §6, §10, §8

L1210 = assay: as above; format: cell-based; conditions: Mus musculus; cell line L1210
Experimental: as §4, §5, §6, §10, §8

MCF-7 = assay: as above; format: cell-based; conditions: Homo sapiens, MCF7; cell line MCF-7
Experimental: as §4, §5, §6, §10, §8

T24 = assay: as above; format: cell-based; conditions: Homo sapiens, T-24; cell line T24
Experimental: as §4, §5, §6, §10, §8

Compound	IC50 (HT-29 [1]) [µM]	C50 (concentration needed to kill 50% of the cellular population present at the beginning) (HT-29 [1]) [µM]	IC50 (MDA-MB-231 [2]) [µM]	C50 (concentration needed to kill 50% of the cellular population present at the beginning) (MDA-MB-231 [2]) [µM]	IC50 (B16-F0 [3]) [µM]	C50 (concentration needed to kill 50% of the cellular population present at the beginning) (B16-F0 [3]) [µM]	IC50 (Caco-2 [4]) [µM]	C50 (concentration needed to kill 50% of the cellular population present at the beginning) (Caco-2 [4]) [µM]	IC50 (DU-145 [5]) [µM]	C50 (concentration needed to kill 50% of the cellular population present at the beginning) (DU-145 [5]) [µM]	IC50 (B16-F0 [6]) [µM]	IC50 (Caco-2 [7]) [µM]	IC50 (DU-145 [8]) [µM]	IC50 (HT-29 [9]) [µM]	IC50 (MDA-MB-231 [10]) [µM]	IC50 (CHO) [µM]	IC50 (K562) [µM]	IC50 (L1210) [µM]	IC50 (MCF-7) [µM]	IC50 (T24) [µM]
CCCCCCc1ccc(NC(=O)NC(CCl)CCC)cc1 (racemic) [Example 14]	10.7	20.3	18.9	32.3	15.8	21.3	12.7	21.1	10.9	19.6	–	–	–	–	–	–	–	–	–	–
CCCC(CCl)NC(=O)Nc1ccc(C2CCCCC2)cc1 (racemic) [Example 25]	–	–	–	–	–	–	–	–	–	–	4.14	6.04	4.3	3.03	6.37	2.12	4.93	4.12	5.05	4.24
CCCCCCc1ccc(NC(=O)N[C@H](C)CCl)cc1 [Example 6]	32.3	44.5	31.5	43.3	26.3	31.3	35.8	44.2	18.9	39.5	–	–	–	–	–	–	–	–	–	–
CCCCCCc1ccc(NC(=O)N[C@@H](C)CCl)cc1 [Example 7]	5.1	12.8	11.7	31.9	16.3	18.2	12.6	21.1	6.3	11.8	–	–	–	–	–	–	–	–	–	–
C[C@@H](CCl)NC(=O)Nc1ccc(C2CCCCC2)cc1 [Example 8]	17.1	23.9	27.6	42.3	21.8	22.1	15.4	20.3	8.6	25.2	–	–	–	–	–	–	–	–	–	–
C[C@H](CCl)NC(=O)Nc1ccc(C2CCCCC2)cc1 [Example 9]	19	28.1	27.5	42.9	15.4	17.4	8.6	14.7	7.8	27.6	–	–	–	–	–	–	–	–	–	–
CCCCCCc1ccc(NC(=O)N[C@H](CC)CCl)cc1 [Example 10]	20.8	36.8	18	40.6	18.8	24.9	10.2	13.7	7.4	27.2	–	–	–	–	–	–	–	–	–	–
CCCCCCc1ccc(NC(=O)N[C@@H](CC)CCl)cc1 [Example 11]	13.1	20.8	15.1	30.1	14.1	18.3	7.5	10.9	4.6	15.8	–	–	–	–	–	–	–	–	–	–
CC[C@H](CCl)NC(=O)Nc1ccc(C2CCCCC2)cc1 [Example 12]	13.6	22.8	19.6	40.3	17.3	21.5	10	17.7	7.3	22.2	–	–	–	–	–	–	–	–	–	–
CC[C@@H](CCl)NC(=O)Nc1ccc(C2CCCCC2)cc1 [Example 13]	9.8	16.3	16.3	32.5	15.5	17.7	9.9	15.6	6.9	16.2	–	–	–	–	–	–	–	–	–	–
COc1ccc(NC(=O)N[C@H](C)CCl)cc1OC [Example 17]	–	–	–	–	–	–	–	–	–	–	26.4	> 100	34.9	14.8	43.6	32.2	9.62	10.3	25.1	12.4
COc1ccc(NC(=O)N[C@@H](C)CCl)cc1OC [Example 18]	–	–	–	–	–	–	–	–	–	–	> 100	> 100	> 100	> 100	> 100	> 100	> 100	> 100	> 100	> 100
